According to US11839613B2, “Pyrimidine derivatives as PGE2 receptor modulators” (IDORSIA PHARMACEUTICALS LTD, priority 2017, dated 2023):
Read-outs that look alike come from different tables or passages of the source.

How the values were obtained:
PTGER4 (EP4) [1] = target: T1, PTGER4 (EP4) (Homo sapiens (Human), UniProt P35408)
EP4 = EP4 (Homo sapiens (Human), UniProt P35408); test: hEP4 cAMP assay (BT549 breast cancer cells, HTRF cAMP); type: cell-based; settings: antagonistic activity, PGE2 6 nM
In short: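 BT549 breast cancer cells (endogenous EP4) in HBSS/20 mM HEPES/0.2% BSA/2 mM IBMX preincubated 45 min at RT with compound, then stimulated 30 min at RT with 6 nM PGE2 (final). cAMP read by competitive HTRF immunoassay, signal inversely proportional to cAMP.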

EP2 = EP2 (Homo sapiens (Human), UniProt P43116); test: hEP2 cAMP assay (SF295 glioblastoma cells, HTRF cAMP); type: cell-based; settings: antagonistic activity
In short: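 PGE2-driven cAMP accumulation was measured by HTRF in SF295 cells, which express endogenous EP2 only. Cells in assay buffer with 2 mM IBMX were pre-incubated 45 min at RT, then incubated 30 min at RT. Detection used competition between cellular cAMP and d2-cAMP for a cryptate anti-cAMP antibody.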

PTGER2 (EP2) = PTGER2 (EP2) (Homo sapiens (Human), UniProt P43116); test: hEP2 b-arrestin assay (PathHunter HEK 293 PTGER2 b-arrestin cells); type: cell-based; settings: antagonistic activity, beta-arrestin assay; read-out: hEP2 b-arr IC50
Method: Plate is pre-incubated 15 minutes at 37° C. Then five microliters of PGE2 (final conc. 5 μM) are transferred into the assay plate. Plate is incubated 120 minutes at 37° C.
(each concentration is measured in duplicate)

PTGER4 (EP4) [2] = target: T1, PTGER4 (EP4); test: cell-based

Chain of EP2 (P43116 whole entry): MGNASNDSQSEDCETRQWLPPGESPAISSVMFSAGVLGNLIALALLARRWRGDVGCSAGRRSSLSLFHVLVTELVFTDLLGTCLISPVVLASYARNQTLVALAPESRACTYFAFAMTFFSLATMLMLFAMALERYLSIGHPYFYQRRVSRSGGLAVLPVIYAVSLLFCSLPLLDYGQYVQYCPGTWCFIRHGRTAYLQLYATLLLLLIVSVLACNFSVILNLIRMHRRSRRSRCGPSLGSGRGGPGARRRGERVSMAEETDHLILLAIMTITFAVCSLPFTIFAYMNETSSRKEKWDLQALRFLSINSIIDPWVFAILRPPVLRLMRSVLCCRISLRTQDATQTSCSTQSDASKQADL
Chain of PTGER2 (EP2) (P43116 whole entry): as above
Chain of EP4 (P35408 whole entry): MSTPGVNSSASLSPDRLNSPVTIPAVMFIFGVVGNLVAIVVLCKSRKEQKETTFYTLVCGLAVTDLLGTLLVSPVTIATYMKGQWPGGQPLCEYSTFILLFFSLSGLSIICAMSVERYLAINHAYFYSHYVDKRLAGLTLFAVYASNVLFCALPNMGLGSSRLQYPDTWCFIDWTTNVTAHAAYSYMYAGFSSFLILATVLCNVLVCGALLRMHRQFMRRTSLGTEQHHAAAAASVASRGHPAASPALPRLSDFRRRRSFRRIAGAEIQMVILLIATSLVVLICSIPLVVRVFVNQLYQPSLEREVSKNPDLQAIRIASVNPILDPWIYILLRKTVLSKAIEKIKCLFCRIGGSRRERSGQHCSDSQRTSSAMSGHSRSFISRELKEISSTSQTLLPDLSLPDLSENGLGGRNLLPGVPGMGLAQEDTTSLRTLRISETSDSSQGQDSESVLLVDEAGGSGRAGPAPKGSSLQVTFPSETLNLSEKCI
T1 sequence (P35408 whole entry): as above

Molecule	IC50 (PTGER4 (EP4) [1])	IC50 (EP4)	IC50 (EP2)	IC50 (PTGER2 (EP2))	IC50 (PTGER4 (EP4) [2])	IC50 (EP4; BT549 cells)
CCOc1cc(-c2cc(NCCc3cc4ccccc4cc3NC)ncn2)ccc1C(=O)O [Ex 312]	556 nM	689 nM	2490 nM	–	–	–
C#Cc1c(CCNc2cc(-c3ccc(C(=O)O)c(OCC)c3)ncn2)ccc2ccccc12 [Ex 141]	131 nM	122 nM	328 nM	–	–	–
CCOc1cc(-c2cc(NCCc3cc4ccccc4cc3C#N)ncn2)ccc1OCC(=O)O [Ex 84]	19 nM	47 nM	1280 nM	–	–	–
CCOc1cc(-c2cc(NCCc3ccc4ccccc4c3C)ncn2)ccc1OCCC(=O)O [Ex 134]	63 nM	84 nM	358 nM	–	–	–
CCOc1cc(-c2cc(NCCc3ccc4sccc4c3)nc(C)n2)ccc1CC(=O)O [Ex 308]	866 nM	674 nM	926 nM	–	–	–
CCOc1cc(-c2cc(NCCc3cc4ccccc4cc3OC(F)F)ncn2)ccc1OCC(=O)O [Ex 129]	35 nM	104 nM	494 nM	–	–	–
(4-{6-[2-(4-Fluoro-benzo[b]thiophen-5-yl)-ethylamino]-pyrimidin-4-yl}-2-trifluoromethoxy-phenyl)-acetic acid [Example 489]	128 nM	–	–	231 nM	–	–
O=C(O)c1ccc(-c2cc(NCCc3ccc4cccc(F)c4c3)ncn2)cc1OC1CCC1 [Ex 231]	286 nM	315 nM	5650 nM	–	–	–
O=C(O)c1ccc(-c2cc(NCCc3c(F)cc4ccccc4c3F)ncn2)cc1OC1CCC1 [Ex 333]	128 nM	–	–	359 nM	–	–
CSc1cc(-c2cc(NCCc3c(F)cc4ccccc4c3F)ncn2)ccc1C(=O)O [Ex 336]	113 nM	–	–	225 nM	–	–
CCOc1cc(-c2cc(NCCc3cc(F)c4sccc4c3)ncn2)ccc1C(=O)NCC(C)(C)O [Example 463]	223 nM	–	–	934 nM	–	–
CCOc1cc(-c2cc(NCCc3cc4cccnc4cc3F)ncn2)sc1-c1nnn[nH]1 [Example 349, {6-[4-Ethoxy-5-(1H-tetrazol-5-yl)-thiophen-2-yl]-pyrimidin-4-yl}-[2-(7-fluoro-quinolin-6-yl)-ethyl]-amine]	–	14 nM	103 nM	109 nM	4 nM	–
CCOc1cc(-c2cc(NCCc3c(OCC)cc4ccccc4c3C)ncn2)ccc1CC(=O)O [Example 420, (2-Ethoxy-4-{6-[2-(3-ethoxy-1-methyl-naphthalen-2-yl)-ethylamino]-pyrimidin-4-yl}-phenyl)-acetic acid]	–	–	257 nM	27 nM	30 nM	119 nM
COc1cc2occc2cc1CCNc1cc(-c2ccc(C(=O)O)c(OC3CCC3)c2)ncn1 [Ex 100, 2-Cyclobutoxy-4-{6-[2-(6-methoxy-benzofuran-5-yl)-ethylamino]-pyrimidin-4-yl}-benzoic acid]	–	67 nM	29 nM	35 nM	176 nM	–
CCOc1cc(-c2cc(NCCc3cc4c(cc3C)OCCO4)ncn2)sc1-c1noc(=O)[nH]1 [Example 341, 3-(3-Ethoxy-5-{6-[2-(7-methyl-2,3-dihydro-benzo[1,4]dioxin-6-yl)-ethylamino]-pyrimidin-4-yl}-thiophen-2-yl)-[1,2,4]oxadiazol-5(4H)-one]	–	36 nM	41 nM	12 nM	14 nM	–
Cc1c(CCNc2cc(-c3ccc(C(=O)O)c(OC4CCC4)c3)ncn2)ccc2ccccc12 [Ex 168]	–	168 nM	214 nM	151 nM	128 nM	–
CCOc1cc(-c2cc(NCCc3cc4ccoc4cc3OC)ncn2)ccc1OCC(=O)O [Ex 112, (2-Ethoxy-4-{6-[2-(6-methoxy-benzofuran-5-yl)-ethylamino]-pyrimidin-4-yl}-phenoxy)-acetic acid]	–	82 nM	69 nM	40 nM	127 nM	–
Cc1c(CCNc2cc(-c3ccc(C(=O)O)c(OC(F)F)c3)ncn2)ccc2ccccc12 [Ex 83, 2-Difluoromethoxy-4-{6-[2-(1-methyl-naphthalen-2-yl)-ethylamino]-pyrimidin-4-yl}-benzoic acid]	–	47 nM	70 nM	274 nM	255 nM	–
O=C(O)c1ccc(-c2cc(NCCc3cc4ccoc4cc3F)ncn2)cc1OC1CCC1 [Ex 200]	–	227 nM	108 nM	57 nM	510 nM	–

More lines, now with the values ahead:

IC50 (PTGER4 (EP4) [1])	IC50 (EP4)	IC50 (EP2)	IC50 (PTGER2 (EP2))	IC50 (PTGER4 (EP4) [2])	IC50 (EP4; BT549 cells)	Molecule
33 nM	64 nM	314 nM	–	–	–	CCOc1cc(-c2cc(NCCc3cc4cccnc4cc3F)ncn2)sc1C(=O)O [Ex 98]
128 nM	46 nM	251 nM	–	–	–	CCOc1cc(-c2cc(NCCc3cc4ccsc4cc3C#N)ncn2)ccc1CC(=O)O [Ex 82]
21 nM	35 nM	1220 nM	–	–	–	CCOc1cc(-c2cc(NCCc3ccc4cccc(F)c4c3)ncn2)sc1C(=O)O [Ex 66]
128 nM	183 nM	769 nM	–	–	–	CCOc1cc(-c2cc(NCCc3cc4c(cc3OC)NCCC4)ncn2)sc1C(=O)O [Ex 173]
25 nM	59 nM	447 nM	–	–	–	CCOc1cc(-c2cc(NCCc3cc(C)c4c(c3)OCCO4)ncn2)sc1C(=O)O [Ex 95]
788 nM	380 nM	272 nM	–	–	–	CCOc1cc(-c2cc(NCCc3ccc4c(c3)CCS4)ncn2)ccc1C(=O)O [Ex 255]
20 nM	13 nM	395 nM	–	–	–	CCOc1cc(-c2cc(NCCc3ccc4cccnc4c3C)ncn2)sc1C(=O)O [Ex 22]
–	16 nM	335 nM	844 nM	25 nM	–	CCOc1cc(-c2cc(NCCc3c(F)c(F)c4cc(C)oc4c3OC)ncn2)sc1C(=O)O [Ex 55, 5-{6-[2-(4,5-Difluoro-7-methoxy-2-methyl-benzofuran-6-yl)-ethylamino]-pyrimidin-4-yl}-3-ethoxy-thiophene-2-carboxylic acid]
–	28 nM	190 nM	538 nM	27 nM	–	CCOc1cc(-c2cc(NCCc3ccc4c(c3)CCCO4)ncn2)sc1C(=O)O [Ex 56, 5-[6-(2-Chroman-6-yl-ethylamino)-pyrimidin-4-yl]-3-ethoxy-thiophene-2-carboxylic acid]
–	15 nM	52 nM	72 nM	18 nM	–	CCOc1cc(-c2cc(NCCc3ccc4cc[nH]c4c3)ncn2)sc1C(=O)O [Ex 24, 3-Ethoxy-5-{6-[2-(1H-indol-6-yl)-ethylamino]-pyrimidin-4-yl}-thiophene-2-carboxylic acid]
–	11 nM	104 nM	12 nM	3 nM	–	CCOc1cc(-c2cc(NCCc3ccc4sccc4c3)ncn2)sc1-c1noc(=O)[nH]1 [Example 340, 3-{5-[6-(2-Benzo[b]thiophen-5-yl-ethylamino)-pyrimidin-4-yl]-3-ethoxy-thiophen-2-yl}-[1,2,4]oxadiazol-5(4H)-one]
–	20 nM	228 nM	126 nM	25 nM	–	CCOc1cc(-c2cc(NCCc3cc4ccccc4cc3C)ncn2)sc1C(=O)O [Ex 40, 3-Ethoxy-5-{6-[2-(3-methyl-naphthalen-2-yl)-ethylamino]-pyrimidin-4-yl}-thiophene-2-carboxylic acid]
–	17 nM	14 nM	29 nM	51 nM	–	CCOc1cc(-c2cc(NCCc3cc4c(cc3C)OCCO4)ncn2)sc1C(=O)O [Ex 30, 3-Ethoxy-5-{6-[2-(7-methyl-2,3-dihydro-benzo[1,4]dioxin-6-yl)-ethylamino]-pyrimidin-4-yl}-thiophene-2-carboxylic acid]
–	18 nM	161 nM	199 nM	56 nM	–	CCOc1cc(-c2cc(NCCc3ccc4[nH]ccc4c3)ncn2)sc1C(=O)O [Ex 32, 3-Ethoxy-5-{6-[2-(1H-indol-5-yl)-ethylamino]-pyrimidin-4-yl}-thiophene-2-carboxylic acid]
–	5 nM	12 nM	21 nM	14 nM	–	CCOc1cc(-c2cc(NCCc3ccc4ccccc4c3C)ncn2)sc1C(=O)O [Example 7, 3-Ethoxy-5-{6-[2-(1-methyl-naphthalen-2-yl)-ethylamino]-pyrimidin-4-yl}-thiophene-2-carboxylic acid]
–	36 nM	110 nM	123 nM	40 nM	–	CCOc1cc(-c2cc(NCCc3ccc4c(c3)OCC4)ncn2)sc1C(=O)O [Ex 67, 5-{6-[2-(2,3-Dihydro-benzofuran-6-yl)-ethylamino]-pyrimidin-4-yl}-3-ethoxy-thiophene-2-carboxylic acid]
–	145 nM	35 nM	32 nM	618 nM	–	CCOc1cc(-c2cc(NCCc3cc4ccoc4cc3OC)ncn2)ccc1C(=O)O [Ex 151, 2-Ethoxy-4-{6-[2-(6-methoxy-benzofuran-5-yl)-ethylamino]-pyrimidin-4-yl}-benzoic acid]
–	8 nM	15 nM	12 nM	9 nM	–	CCOc1cc(-c2cc(NCCc3cc4ccoc4cc3F)ncn2)sc1C(=O)O [Ex 13, 3-Ethoxy-5-{6-[2-(6-fluoro-benzofuran-5-yl)-ethylamino]-pyrimidin-4-yl}-thiophene-2-carboxylic acid]
